In ChEMBL document CHEMBL5149975, “Freshwater Fungi as a Source of Chemical Diversity: A Review” (J Nat Prod, 2021):
Values after ≈ are worked out from the molar mass of the structure shown. Values belong to the compound of their own block, whether it stands above or below them.

Key:
[1] = target: T1, Tyrosine-protein phosphatase non-receptor type 1 (Homo sapiens) (UniProt P18031); assay: Inhibition of PTP1B (unknown origin) at 15.7 uM relative control
T1 sequence (whole entry): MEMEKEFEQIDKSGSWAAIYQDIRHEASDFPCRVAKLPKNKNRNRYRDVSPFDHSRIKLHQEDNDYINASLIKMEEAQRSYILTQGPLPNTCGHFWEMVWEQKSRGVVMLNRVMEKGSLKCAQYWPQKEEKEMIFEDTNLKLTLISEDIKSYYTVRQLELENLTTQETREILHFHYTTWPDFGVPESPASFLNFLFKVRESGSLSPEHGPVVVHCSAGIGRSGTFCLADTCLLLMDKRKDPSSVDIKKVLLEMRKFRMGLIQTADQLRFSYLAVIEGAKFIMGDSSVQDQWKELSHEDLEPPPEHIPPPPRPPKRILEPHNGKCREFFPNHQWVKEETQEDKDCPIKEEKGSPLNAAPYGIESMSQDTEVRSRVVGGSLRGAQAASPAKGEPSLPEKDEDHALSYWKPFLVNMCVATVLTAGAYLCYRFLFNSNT

Staphylococcus aureus [2] = assay: Antibacterial activity against Staphylococcus aureus ATCC 6538 inhibition of zones at 50 ug per disk by standard disk assay; type: functional; details: read-out: IZ
[3] = target: T2, Tyrosine-protein phosphatase non-receptor type 1 (Homo sapiens, UniProt P18031); assay: Inhibition of human recombinant PTP1B (1 to 322 residues) expressed in Escherichia coli using pNPP as substrate incubated for 10 mins followed by substrate addition and measured after 30 mins by microplate reader based analysis
T2 sequence (P18031 whole entry): T1 sequence (whole entry)

Bacillus cereus = assay: Antibacterial activity against Bacillus cereus by microtiter plate method; type: functional
Vibrio anguillarum = assay: Antibacterial activity against Vibrio anguillarum by microtiter plate method; type: functional
Vibrio parahaemolyticus = assay: Antibacterial activity against Vibrio parahaemolyticus by microtiter plate method; type: functional
Pseudomonas aeruginosa = assay: Antimicrobial activity against Pseudomonas aeruginosa; type: functional
Staphylococcus aureus [4] = assay: Antimicrobial activity against Staphylococcus aureus; type: functional
Candida albicans = assay: Antifungal activity against clinical isolate Candida albicans measured after 24 hrs by agar dilution method; type: functional
Staphylococcus aureus [5] = assay: Antibacterial activity against Staphylococcus aureus ATCC25923 measured after 18 hrs by agar dilution method; type: functional
[6] = target: T2, Tyrosine-protein phosphatase non-receptor type 1; assay: Inhibition of PTP1B (unknown origin)
[7] = target: T1, Tyrosine-protein phosphatase non-receptor type 1 (Homo sapiens); assay: Inhibition of human recombinant PTP1B (1 to 322 residues) expressed in Escherichia coli using pNPP as substrate at 36 uM incubated for 10 mins followed by substrate addition and measured after 30 mins by microplate reader based analysis relative to control; details: time 40.0 min
[8] = tested on: Mycolicibacterium smegmatis; assay: Antimicrobial activity against Mycobacterium smegmatis; type: functional
[9] = Antioxidant activity of the compound by DPPH assay; type: functional

Structure (SMILES): COC(=O)[C@@]12Oc3ccc(-c4ccc5c(c4O)C(=O)C4=C(O)C[C@H](C)[C@@H](O)[C@]4(C(=O)OC)O5)c(O)c3C(=O)C1=C(O)C[C@H](C)[C@H]2O
inhibition [1]: 40%

Structure (SMILES): O=C1c2c(O)cc(CO)cc2COc2c(O)c(O)cc(O)c21
zone of inhibition at 50 µg/disc (Staphylococcus aureus [2]): 11 mm

Structure (SMILES): COc1cc(C)c(Oc2cc(C)cc(O)c2)c(O)c1 [CYPERIN]
IC50 [3]: 17 µM

MIC (Bacillus cereus): 25 µM (≈ 5.93 µg/mL)
MIC (Vibrio anguillarum): 25 µM (≈ 5.93 µg/mL)
Structure (SMILES): O=c1[nH]c2ccccc2c(-c2ccccc2)c1O
MIC (Vibrio parahaemolyticus): 25 µM (≈ 5.93 µg/mL)

Structure (SMILES): COc1ccc(OC)c2c1OCc1cc(C)cc(O)c1C2=O
zone of inhibition at 50 µg/disc (Staphylococcus aureus [2]): 11 mm

MIC (Pseudomonas aeruginosa): 0.8 µM (≈ 0.358 µg/mL)
Structure (SMILES): CC1(C)C=Cc2c(ccc3c2N[C@]2(C[C@@]45NC(=O)[C@]6(CCCN6C4=O)CC5C2(C)C)C3=O)O1 (stereo partly drawn)

MIC (Staphylococcus aureus [4]): 33 µg/mL
Structure (SMILES): COc1cc(O)c2c(c1C)[C@H](C)C(=O)OC2=O

MIC (Candida albicans): > 128 µg/mL
MIC (Staphylococcus aureus [5]): > 128 µg/mL
Structure (SMILES): C=C1CCC[C@@]2(C)CC(O)[C@H](C(C)(C)O)C[C@]12O (stereo partly drawn)

Structure (SMILES): COC(=O)[C@@]12Oc3c(-c4ccc5c(c4O)C(=O)C4=C(O)C[C@H](C)[C@H](O)[C@]4(C(=O)OC)O5)ccc(O)c3C(=O)C1=C(O)C[C@H](C)[C@H]2O
IC50 [6]: 5.9 µM

MIC (Candida albicans): > 128 µg/mL
MIC (Staphylococcus aureus [5]): > 128 µg/mL
Structure (SMILES): C=C1CCC[C@]2(C)C1C[C@@H](C(C)(C)O)C[C@@H]2O (stereo partly drawn)

inhibition [7]: 32%
Structure (SMILES): COc1cc(O)cc(C)c1Oc1cc(C)cc(O)c1O

MIC (Staphylococcus aureus [4]): 86 µM
MIC [8]: 172 µM (≈ 59.9 µg/mL)
Structure (SMILES): O=C1C=C2OC3(O)CC(=O)c4c(O)cccc4C3=C2c2cccc(O)c21 (stereo not drawn)

Structure (SMILES): COc1cc(O)c(OC)c2c1C(=O)c1c(O)cc(C)cc1CO2
zone of inhibition at 50 µg/disc (Staphylococcus aureus [2]): 11 mm

MIC (Candida albicans): > 128 µg/mL
MIC (Staphylococcus aureus [5]): > 128 µg/mL
Structure (SMILES): C=C1CCC[C@@]2(C)CC[C@H](C(C)(C)O)C[C@]12O

Structure (SMILES): O=c1c(O)c(-c2ccc(O)c(O)c2)oc2cc(O)cc(O)c12 [QUERCETIN]
IC50 [9]: 5.7 µM

Structure (SMILES): Cc1cc(O)c2c(c1)COc1c(O)ccc(O)c1C2=O
zone of inhibition at 50 µg/disc (Staphylococcus aureus [2]): 11 mm

IC50 [3]: 13 µM
Structure (SMILES): COc1cc(C)c(Oc2cc(C)cc(O)c2O)c(O)c1

Structure (SMILES): COC(=O)[C@@]12Oc3ccc(-c4ccc5c(c4O)C(=O)C4=C(O)C[C@H](C)[C@H](O)[C@]4(C(=O)OC)O5)c(O)c3C(=O)C1=C(O)C[C@H](C)[C@H]2O
IC50 [6]: 9.6 µM

Structure (SMILES): COc1ccc(OC)c2c1OCc1cc(CO)cc(O)c1C2=O
zone of inhibition at 50 µg/disc (Staphylococcus aureus [2]): 11 mm

IC50 [9]: 2.8 µM
Structure (SMILES): COC(=O)[C@H]1C[C@@H](C)[C@H]2[C@@H](C=C[C@H](C)[C@@H]2/C=C/C=C/C(=O)O)[C@@H]1C

IC50 [6]: 6 µM
Structure (SMILES): COC(=O)[C@@]12Oc3ccc(Oc4cccc5c4C(=O)C4=C(O)C[C@H](C)[C@H](O)[C@]4(C(=O)OC)O5)c(O)c3C(=O)C1=C(O)C[C@H](C)[C@H]2O

MIC (Candida albicans): > 128 µg/mL
MIC (Staphylococcus aureus [5]): > 128 µg/mL
Structure (SMILES): C=C1CCC[C@@]2(C)C[C@H](O)[C@H](C(C)(C)O)C[C@@]12O

MIC (Candida albicans): > 128 µg/mL
MIC (Staphylococcus aureus [5]): > 128 µg/mL
Structure (SMILES): C=C1CCC[C@@]2(C)CC[C@H](C(C)(C)O)CC12 (stereo partly drawn)

MIC (Candida albicans): > 128 µg/mL
MIC (Staphylococcus aureus [5]): > 128 µg/mL
Structure (SMILES): C=C1C[C@@H](O)C[C@@]2(C)CC[C@H](C(C)(C)O)CC12 (stereo partly drawn)
